Measured values as given in US9017730B2 (The Regents of the University of California, priority 2010, dated 2015).

Experiments:
E. coli = assay: in vitro antimicrobial activity, incubated with bacteria for 30 min prior to plating for growth; format: cell-based
Procedure: (§1) K180L20 was incubated with bacteria for 30 min prior to plating for growth;

P. aeruginosa = assay: as above; format: cell-based
Procedure: as §1

S. aureus = assay: as above; format: cell-based
Procedure: as §1

S. epidermidis = assay: as above; format: cell-based; settings: FIG. 4
Procedure: as §1

[1] = inflammation by histology in rodent infection model; format: in vivo, rats; settings: rodent open wounds, copolypeptide in solution, versus control treatments
[2] = critical aggregation concentration (CAC) via pyrene fluorescence; format: physicochemical; settings: in water
Procedure: Polypeptide solutions (2 mL) were dispersed in water at a range of concentrations (2.0×10^−3 to 2.0×10^−12 M). A stock pyrene solution was made by dissolving pyrene in acetone (6.0×10^−2 M). Next, an appropriate amount of the pyrene stock solution was added to give a final concentration of 12×10^−7 M in water and the acetone was evaporated off. To each polypeptide solution, 2.0 mL of the aqueous stock pyrene solution was added to afford a final concentration of 6.0×10^−7 M. Then, each solution was allowed to equilibrate overnight prior to measurements. To record fluorescence spectra, 3.0 mL of each polypeptide solution was added to a 4.0 mL polystyrene covet. The excitation spectra were recorded within a range of 300-360 nm at an emission wavelength of 390 nm. All spectra were run with an integration time of 1 sec/0.5 nm. The ratio of the intensities of two peaks I338/I333 was plotted as a function of polypeptide concentration (M) for each sample. The CACs were determined as the intersection of the extrapolated linear fits of the plot.

[3] = pig, in vivo
[4] = pig, in vivo; remark: listed apart in the source
S. aureus 6538 [5] = assay: porcine infection prevention open-wound model; settings: solution (10 mg/mL) applied prior to inoculation
Procedure: Full-thickness 1 cm diameter wounds were made in the dorsal and lateral thorax of a 25-35 kg Yorkshire-cross pig. K180L20 hydrogel (or control buffer) was applied, and after four hr, wounds were inoculated with S. aureus. Wounds were assessed after 48 hr for bacterial counts by standard microbiology methods.

S. aureus 6538 [6] = assay: rodent model of prevention of wound infection (subcutaneous polypropylene mesh); settings: solution
Procedure: (§2) In this model, a mesh pre-soaked with phosphate buffered saline (PBS) or K180L20 was inserted subcutaneously into the dorsal cervical region of Sprague-Dawley rats, followed by 10^6 S. aureus or P. aeruginosa. Additional PBS or K180L20 was added, wounds closed, and animals returned to cages for 48 hr.

[7] = test system: P. aeruginosa (Clinical Pig Isolate); assay: as above; settings: solution
Procedure: as §2

microbes = assay: in vitro antimicrobial activity, organism not given; format: cell-based; settings: neutral pH (~7)

Substance | reduction of bacteria, E. coli (E. coli; 10 μg/ml) | antimicrobial activity against E. coli (E. coli; FIG. 4) | reduction of bacteria, P. aeruginosa (P. aeruginosa; 10 μg/ml) | antimicrobial activity against P. aeruginosa (P. aeruginosa; FIG. 4) | reduction of bacteria, S. aureus (S. aureus; 10 μg/ml) | antimicrobial activity against S. aureus (S. aureus; FIG. 4) | antimicrobial activity against S. epidermidis (S. epidermidis) | inflammation, histopathological evidence [1] | critical aggregation concentration (CAC) [2] | mononuclear inflammation, edema, or hemorrhage versus controls [3] | neutrophilic inflammation, severity versus controls [3] | serocellular exudates, severity versus controls [3] | inflammation, necrosis, and epithelial coverage versus control-treated wounds [4] | prevention of microbial infection, S. aureus (S. aureus 6538 [5]) | reduction in bacterial population, S. aureus (S. aureus 6538 [6]; 20 μg/ml of copolypeptide) | reduction in bacterial population, S. aureus (S. aureus 6538 [6]; 2 mg/ml) | reduction in bacterial population, P. aeruginosa ([7]; 20 μg/ml of copolypeptide) | reduction in bacterial population, P. aeruginosa ([7]; 2 mg/ml) | antimicrobial activity at neutral pH (microbes)
Poly(L-Lysine.HCl)55-b-poly(rac-Leucine)20 [K55(rac-L)20] | reduction of bacteria | substantial antimicrobial activity | reduction of bacteria | substantial antimicrobial activity | reduction of bacteria | substantial antimicrobial activity | substantial antimicrobial activity | at or below the level of control treatments | 8.1 µM | No differences | minimally less severe | mildly | similar | fully prevented microbial infection | 1-3 log | complete (or near complete) reduction | 1-3 log | complete (or near complete) reduction | –
Poly(L-glutamate-Na)54-b-poly(rac-leucine)20 [E54(rac-L)20] | – | – | – | – | – | – | – | – | – | – | – | – | – | – | – | – | – | – | low antimicrobial activity
